How the values were obtained:
TRF1TRFH = biological target: T1, TRF1TRFH (Homo sapiens, UniProt P54274); test: LO-NMR R2KD assay; format: binding; settings: global KD shared across 1H NMR peaks, single experiment, 95% CI in parentheses; 2 µM TRF1TRFH
T1 construct: encoding residues 47–268, UniProt identifier P54274-1; His6-MBP (TEV-cleavable) (N, cleaved yes); made in house; host or cells: E. coli BL21-CodonPlus(DE3)-RIL
T1 sequence (P54274 47-268): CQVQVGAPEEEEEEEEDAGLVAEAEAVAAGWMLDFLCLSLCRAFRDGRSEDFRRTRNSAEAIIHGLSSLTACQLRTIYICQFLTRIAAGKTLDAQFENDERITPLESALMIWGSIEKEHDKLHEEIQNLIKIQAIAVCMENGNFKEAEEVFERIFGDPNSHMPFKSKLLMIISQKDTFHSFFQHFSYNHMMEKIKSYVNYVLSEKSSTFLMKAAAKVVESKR
Method: Recent work by Liu and colleagues introduced a novel LO-NMR method that can be used to quantitatively determine the dissociation constant (KD) of a ligand for a protein from measured R2 values of ligand nuclei at a range of ligand concentrations.
The R2KD assay was carried out as described by Liu et al.[40]. A Bruker SamplePro liquid handler was used to prepare 10 samples: 8 samples containing an increasing ligand concentration from 50 to 500 µM whilst maintaining a constant TRF1TRFH concentration (2 µM final); and two samples containing ligand only at 200 µM and 400 µM. All ten samples were prepared from stock solutions of ligand, DMSO, protein and buffer alone using the Bruker SamplePro liquid handler prior to transfer to 3-mm NMR tubes.
NMR data were collected at 298 K on a Bruker Avance Neo 600-MHz spectrometer using the Bruker Topspin 4.0 software. T2 relaxation experiments were performed using the standard Bruker CPMG pulse program with Excitation Sculpting incorporated to suppress water signal. The spin-echo period (delay-180°-delay) was set to 1 ms (d20 = 500 µs), and the relaxation delay (d1) was set to 10 s. The sudo-2D experiment contained nine slices with the spin echo period repeated at the following times: 4, 20, 100, 200, 300, 500, 700, 1000, and 2000 ms. T2 relaxation data were processed using the MestReNova 14.1 data analysis module to obtain integrals of individual[1]H-NMR signals, which were used to calculate R2 with the equation I = I0e^(−tR2). GraphPad Prism 9.0.0 was used to fit R2 values of individual compound peaks to obtain an overall (shared) KD value from all peaks of the compound.

shelterin complex = biological target: T2, shelterin complex (Homo sapiens, UniProt P54274); test: SDS-PAGE/Western blot of crosslinked shelterin after compound incubation; format: biochemical
T2 construct: evicted full-length TRF1 from the shelterin complex; made in house; host or cells: Spodoptera frugiperda (Sf9) insect cells, MultiBac baculovirus
T2 sequence (P54274 1-439): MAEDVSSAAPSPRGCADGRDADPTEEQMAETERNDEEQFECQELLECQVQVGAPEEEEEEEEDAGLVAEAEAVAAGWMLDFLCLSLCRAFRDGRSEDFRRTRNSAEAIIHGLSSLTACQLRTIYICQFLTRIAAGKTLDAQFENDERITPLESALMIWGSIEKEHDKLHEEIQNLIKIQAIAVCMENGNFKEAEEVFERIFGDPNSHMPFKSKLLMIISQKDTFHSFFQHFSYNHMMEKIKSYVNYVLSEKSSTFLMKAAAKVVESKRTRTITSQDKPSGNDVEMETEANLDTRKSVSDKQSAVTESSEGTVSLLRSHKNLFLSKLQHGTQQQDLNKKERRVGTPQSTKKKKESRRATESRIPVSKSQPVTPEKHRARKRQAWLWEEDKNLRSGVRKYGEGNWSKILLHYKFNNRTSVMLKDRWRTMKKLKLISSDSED
Text: We developed a mass-photometry based assay to evaluate the ability of compound 40 to disrupt the TRF1TRFH:TIN2TBM interaction and subsequently evict TRF1 from the full shelterin complex. We expressed recombinant shelterin in insect cells (see Materials and Methods) and purified it via affinity and size exclusion chromatography (SEC). Given the compositional heterogeneity of shelterin, also observed by Zinder et al. 2022[42], we enriched a complex of approximately 700 kDa by serial SEC. The resulting complex was incubated with increasing concentrations of compound 40, and the resulting mass distribution was analysed by mass photometry. […] To confirm whether the evicted entity corresponds to TRF1, we analysed the full shelterin complex by SDS-PAGE, upon co-incubation with increasing amounts of compound 40 or control compound 60 and subsequent mild crosslinking, analogous to the mass photometry experiment. […]
For SDS-PAGE and Western blotting studies, SEC-purified shelterin was diluted to 0.9 µM and incubated with increasing concentrations of compound 40 or 60 (negative control) in the same range as for the MP experiment (from 0 to 300 µM). […] The samples were then analysed by SDS-PAGE, followed by either Coomassie staining or Western blotting. […] Normalised signal intensities from three independent experiments were analysed and plotted using GraphPad Prism (v10.5.0).

## COc1cc(COc2ccc(S(=O)(=O)[O-])c3ccccc23)cc(OC)c1.[Na+] [Compound 40]
TRF1TRFH
  Kd: 29 µM
Shelterin complex; 0.9 µM shelterin, 0-300 µM compound, 0.075% glutaraldehyde
  release of TRF1 (species migrating between 100 and 150 kDa): dose-dependently liberated
Shelterin complex; Western blot probing for TRF2 and TIN2
  release of TRF2 and TIN2 from shelterin: TRF2 was not released, nor was TIN2

— PMC12635197, “Discovery of first-in-class inhibitors of the TRF1:TIN2 protein:protein interaction by fragment screening” (Scientific Reports, 2025)
